# Target: Casein kinase I isoform gamma-3 (Homo sapiens) (UniProt Q9Y6M4)
# Test: ligand binding to human CK1 gamma-3 kinase – biophysical, DSF, SYPRO orange, recombinant protein (AID 385)
# Conditions: recombinant CSNK1G3, DSF thermal shift, at 10 µM, protein 2 µM, buffer 10 mM HEPES, pH 7.5, NaCl 150 mM, stronger effect = higher value
# Casein kinase I isoform gamma-3 (Homo sapiens), sequence (Q9Y6M4 whole entry, looked up, canonical isoform): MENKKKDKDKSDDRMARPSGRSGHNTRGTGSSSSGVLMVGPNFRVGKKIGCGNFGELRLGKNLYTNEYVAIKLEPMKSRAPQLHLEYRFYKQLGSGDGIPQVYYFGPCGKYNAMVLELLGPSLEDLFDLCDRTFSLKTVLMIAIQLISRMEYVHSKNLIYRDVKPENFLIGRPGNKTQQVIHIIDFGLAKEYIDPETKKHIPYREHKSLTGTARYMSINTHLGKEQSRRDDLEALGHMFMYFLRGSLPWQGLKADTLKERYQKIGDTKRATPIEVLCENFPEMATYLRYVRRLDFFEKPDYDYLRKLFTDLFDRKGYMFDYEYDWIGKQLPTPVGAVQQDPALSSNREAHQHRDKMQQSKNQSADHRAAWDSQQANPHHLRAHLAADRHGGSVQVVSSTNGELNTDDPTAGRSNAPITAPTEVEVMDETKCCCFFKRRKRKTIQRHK
row,Structure (SMILES),Tm shift
1,Nc1nc(Nc2ccc(S(N)(=O)=O)cc2)nn1C(=S)Nc1c(F)cccc1F,5.4 C
2,NC(=O)c1ccc(-c2nc(-c3ccc4c(c3)OCCO4)c(-c3ccccn3)[nH]2)cc1,6.7 C
3,Nc1nc(Nc2ccc(F)cc2)sc1C(=O)c1ccccc1,3.5 C
4,CC(C)n1cnc2c(Nc3cccc(Cl)c3)nc(NCCO)nc21,7 C
5,N#C/C(=C1\Nc2ccccc2S1)c1ccnc(NCCc2cccnc2)n1,3.5 C
6,CCn1cnc2c(Nc3cccc(Cl)c3)nc(N[C@@H]3CCCC[C@@H]3N)nc21,5.5 C
7,Nc1nc(Nc2ccccc2F)sc1C(=O)c1ccc(Br)cc1,3.4 C
8,O=Nc1c(-c2c(O)[nH]c3ccc(S(O)(O)O)cc23)[nH]c2ccccc12,3.8 C
9,COc1ccc(Nc2nc(N)c(C(=O)c3ccc(OC)cc3)s2)cc1,4.9 C
10,Nc1nc(Nc2cccc(Cl)c2)sc1C(=O)c1ccc(F)cc1,4.8 C
11,CSc1nc(-c2ccnc(NC(C)c3ccccc3)c2)c(-c2ccc(F)cc2)[nH]1 (stereo unspecified),3.5 C
12,COc1ccc(Nc2nc(N)c(C(=O)c3ccc(Cl)cc3)s2)cc1,3.1 C
13,Nc1nc(Nc2ccccc2)sc1C(=O)c1ccc(F)cc1,3.3 C
14,CCN(CC)CCNC(=O)c1c(C)[nH]c(/C=C2\C(=O)Nc3ccc(Cl)cc32)c1C,4 C
15,NC1=N/C(=C2/CCNC(=O)c3[nH]c(Br)cc32)C(=O)N1,3.5 C
16,O=c1[nH]c(O)c2c1c1c3ccccc3nc1n1cncc21,3.5 C

# — PubChem BioAssay AID385 (SGCOxCompounds, 2006)
